Results published in the supplement of paper PMC10307832.

Tests used:
Assay in all cases: relative viability (nuclei count vs DMSO), 5 days (fraction); higher = more cells survive
VX-702 + Olaparib = compound: NC(=O)c1ccc(N(C(N)=O)c2c(F)cccc2F)nc1-c1ccc(F)cc1F [VX-702] + O=C(c1cc(Cc2n[nH]c(=O)c3ccccc23)ccc1F)N1CCN(C(=O)C2CC2)CC1 [Olaparib] (partner 8 µM)
Procedure, shortened: (§1)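 Lung cancer cell lines, seeded in 1536-well plates, were treated the following day by pin tool with a single drug or with five library-drug doses (not always all listed) in √10 steps on top of a fixed anchor-drug dose. Cells were fixed and nuclei stained in one step after 5 days, and nuclei were counted. Relative viability is the nuclei count for treated wells divided by that for vehicle wells, reported as medians of duplicate plates.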

Dabrafenib + Trametinib = compound: CC(C)(C)c1nc(-c2cccc(NS(=O)(=O)c3c(F)cccc3F)c2F)c(-c2ccnc(N)n2)s1 [Dabrafenib] + CC(=O)Nc1cccc(-n2c(=O)n(C3CC3)c(=O)c3c(Nc4ccc(I)cc4F)n(C)c(=O)c(C)c32)c1 [Trametinib] (partner 0.02 µM)
Procedure, shortened: as §1

VX-702 + Pictilisib = compound: NC(=O)c1ccc(N(C(N)=O)c2c(F)cccc2F)nc1-c1ccc(F)cc1F [VX-702] + CS(=O)(=O)N1CCN(Cc2cc3nc(-c4cccc5[nH]ncc45)nc(N4CCOCC4)c3s2)CC1 [Pictilisib] (partner 1 µM)
Procedure, shortened: as §1

Dabrafenib + Luminespib = compound: CC(C)(C)c1nc(-c2cccc(NS(=O)(=O)c3c(F)cccc3F)c2F)c(-c2ccnc(N)n2)s1 [Dabrafenib] + CCNC(=O)c1noc(-c2cc(C(C)C)c(O)cc2O)c1-c1ccc(CN2CCOCC2)cc1 [Luminespib] (partner 0.01 µM)
Procedure, shortened: as §1

Cell Line	relative viability (VX-702 + Olaparib; first compound 0.02 µM)	relative viability (VX-702 + Olaparib; first compound 0.2 µM)	relative viability (VX-702 + Olaparib; first compound 0.6325 µM)	relative viability (VX-702 + Olaparib; first compound 2 µM)	relative viability (Dabrafenib + Trametinib; first compound 0.003 µM)	relative viability (Dabrafenib + Trametinib; first compound 0.009487 µM)	relative viability (Dabrafenib + Trametinib; first compound 0.03 µM)	relative viability (Dabrafenib + Trametinib; first compound 0.09487 µM)	relative viability (Dabrafenib + Trametinib; first compound 0.3 µM)	relative viability (VX-702 + Pictilisib; first compound 0.02 µM)	relative viability (VX-702 + Pictilisib; first compound 0.2 µM)	relative viability (VX-702 + Pictilisib; first compound 0.6325 µM)	relative viability (VX-702 + Pictilisib; first compound 2 µM)	relative viability (Dabrafenib + Luminespib; first compound 0.003 µM)	relative viability (Dabrafenib + Luminespib; first compound 0.009487 µM)	relative viability (Dabrafenib + Luminespib; first compound 0.03 µM)	relative viability (Dabrafenib + Luminespib; first compound 0.09487 µM)	relative viability (Dabrafenib + Luminespib; first compound 0.3 µM)
HOP-62	0.478	0.611	0.553	0.65	0.352	0.41	0.36	0.429	0.469	0.852	0.652	0.597	0.683	0.936	0.878	0.977	0.795	0.872
IA-LM	0.833	0.841	0.994	0.937	–	–	–	–	–	0.298	0.324	0.265	0.352	–	–	–	–	–
LC-2-ad	0.724	0.678	0.799	0.776	0.891	0.931	0.901	0.862	0.992	0.472	0.45	0.446	0.433	–	1.16	1.27	1.04	0.947
LCLC-97TM1	0.428	0.307	0.502	0.69	–	0.225	0.193	0.21	0.205	0.148	0.21	0.121	0.192	0.764	0.745	0.584	0.756	0.775
LCLC-103H	0.788	0.757	0.795	0.817	0.635	0.707	0.614	0.684	0.701	0.638	0.621	0.666	0.613	0.971	1.01	0.923	0.897	1.01
LK-2	0.68	0.601	0.555	0.751	0.692	0.925	0.473	0.774	0.934	0.457	–	0.385	0.594	0.185	0.187	–	0.153	0.157
LOU-NH91	0.888	0.891	0.911	0.881	–	0.774	0.792	0.782	0.837	0.545	0.489	0.491	0.53	0.262	0.36	0.28	0.343	0.294
LU99A	0.265	0.233	0.255	0.228	0.453	0.384	0.508	0.529	0.574	0.316	0.297	0.292	0.318	0.203	0.212	0.225	0.3	0.29
LXF-289	1.08	1.07	1.06	1.1	0.677	0.653	0.711	0.672	0.733	0.85	0.785	0.818	0.784	0.651	0.73	0.675	0.589	0.752
NCI-H23	0.372	0.254	0.329	0.402	–	0.425	0.364	0.34	0.508	0.506	0.424	0.464	0.652	–	–	0.225	0.195	0.226
NCI-H322M	1.26	0.839	0.806	0.929	–	0.492	–	0.53	0.532	0.543	0.528	0.483	0.521	–	1.05	0.692	0.856	0.803
NCI-H358	0.628	0.526	0.561	0.634	0.109	0.116	0.159	0.162	0.178	0.352	0.343	0.301	0.323	–	0.396	0.35	–	0.237
NCI-H441	0.567	0.553	0.572	0.661	–	0.53	0.54	0.681	0.829	0.503	0.492	0.352	0.494	–	0.317	0.389	0.461	0.347
NCI-H460	0.428	0.438	0.548	0.26	0.144	0.171	0.115	0.317	0.341	0.361	0.153	0.295	0.257	0.0327	0.0312	0.0334	0.042	0.0437
NCI-H520	0.358	0.305	0.379	0.289	0.665	0.653	0.541	0.627	0.628	0.282	0.216	0.25	0.306	0.228	0.213	0.21	0.262	0.224
NCI-H522	0.754	0.678	0.667	0.619	–	0.829	0.753	0.682	0.792	–	–	–	–	–	1.05	1.11	–	1.3
NCI-H1299	0.982	0.924	0.937	0.862	–	–	–	–	–	0.802	0.65	0.554	0.547	–	–	–	–	–
NCI-H1563	–	–	–	–	–	–	–	–	–	0.685	0.626	0.594	0.625	0.48	0.491	0.508	0.515	0.574
NCI-H1623	–	–	–	–	–	–	–	–	–	–	–	–	–	–	0.534	0.479	0.579	0.553
NCI-H1648	0.817	0.851	0.689	0.781	0.457	0.524	–	0.425	0.585	–	–	–	–	–	–	–	–	–
NCI-H1703	0.415	0.361	0.315	0.47	–	–	–	–	–	0.229	0.277	0.218	0.263	–	–	–	–	–
NCI-H2342	0.401	0.457	0.475	0.466	0.808	0.79	0.76	0.866	0.927	–	–	–	–	0.666	0.563	0.707	0.769	0.842
